Reference: patent US12391697B2, “Condensed bi-heterocycles as inhibiting agents for Bruton's tyrosine kinase” (BIOGEN MA INC., priority 2019, dated 2025)

Biological target: BTK (Homo sapiens (Human), UniProt Q06187)
Assay: In Vitro BTK Kinase Assay: Btk-PolyGAT-LS Assay
Format: biochemical
Conditions: active BTK enzyme 0.25 nM, ATP 10 μM, polyGAT 100 nM, 30 minutes
Procedure: In Vitro BTK Kinase Assay: Btk-PolyGAT-LS Assay
The purpose of the BTK in vitro assay is to determine compound potency against BTK through the measurement of IC50. […] The BTK kinase reaction was done in a black 96 well plate (costar 3694). For a typical assay, a […] aliquot of a ATP/peptide master mix (final concentration; ATP 10 μM, polyGAT 100 nM) in kinase buffer (10 mM Tris-HCl pH 7.5, 10 mM MgCl2, 200 μM […], 5 mM DTT, 0.01% Triton X-100, and 0.2 mg/ml casein) is added to each well. Next, […] of a 4-fold, 40× compound titration in 100% DMSO solvent is added, followed by adding 15 uL of BTK enzyme mix in 1× kinase buffer (with a final concentration of 0.25 nM). The assay is incubated for 30 minutes before being stopped with […] of a 50 mM EDTA solution. Aliquots (5 uL) of the kinase reaction are transferred to a low volume white 384 well plate (Corning 3674), and […] of a 2× detection buffer (Invitrogen PV3574, with 4 nM Tb-PY20 antibody, Invitrogen PV3552) is added. The plate is covered and incubated for 45 minutes at room temperature. Time resolved fluorescence (TRF) on Molecular Devices M5 (332 nm excitation; 488 nm emission; 518 nm fluorescein emission) is measured.

Sequence of BTK (Q06187 whole entry): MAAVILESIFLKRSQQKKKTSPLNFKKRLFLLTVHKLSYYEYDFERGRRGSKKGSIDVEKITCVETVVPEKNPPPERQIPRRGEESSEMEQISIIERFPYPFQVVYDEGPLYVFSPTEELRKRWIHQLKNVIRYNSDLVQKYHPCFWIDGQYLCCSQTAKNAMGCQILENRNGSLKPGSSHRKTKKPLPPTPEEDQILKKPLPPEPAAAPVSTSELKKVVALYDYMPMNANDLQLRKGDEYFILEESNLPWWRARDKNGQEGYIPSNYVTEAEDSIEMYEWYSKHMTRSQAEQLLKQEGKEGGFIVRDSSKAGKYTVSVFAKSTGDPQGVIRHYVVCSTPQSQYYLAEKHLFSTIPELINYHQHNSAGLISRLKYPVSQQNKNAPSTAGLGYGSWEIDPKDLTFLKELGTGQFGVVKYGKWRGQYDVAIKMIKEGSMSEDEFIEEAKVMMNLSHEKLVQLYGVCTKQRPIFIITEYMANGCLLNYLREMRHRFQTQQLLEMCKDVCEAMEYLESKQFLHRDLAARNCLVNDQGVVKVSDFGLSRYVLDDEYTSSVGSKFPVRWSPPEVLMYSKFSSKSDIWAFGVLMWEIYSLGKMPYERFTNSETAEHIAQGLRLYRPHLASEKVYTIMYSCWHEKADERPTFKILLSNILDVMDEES

Compound | IC50 [nM]
Cc1cc(-c2ncnn3cc(N4CCOCC4)cc23)ccc1CNC(=O)c1nnn(C(C)(C)C)n1 [Example 114] | ≤ 1
Cc1c(CNC(=O)c2nc(C(C)(C)C)no2)ccc(-c2ccnc3cc(N4CCOCC4)nn23)c1F [Example 118] | 1 to 10
Cc1cc(-c2ncnn3cc(N4CCn5ccnc5C4)cc23)ccc1CNC(=O)c1noc(C(C)(C)C)n1 [Example 120] | ≤ 1
Cc1cc(-c2ncnn3cc(N4CCn5ccnc5C4)cc23)ccc1CNC(=O)c1nc(C(C)(C)C)no1 [Example 121] | ≤ 1
Cc1cc(-c2ncnn3cc(N4C[C@@H](F)[C@@H](F)C4)cc23)ccc1CNC(=O)c1noc(C(C)(C)C)n1 [Example 122] | ≤ 1
Cc1cc(-c2ncnn3cc(N4CCN5CC(F)(F)C[C@H]5C4)cc23)ccc1CNC(=O)c1nc(C(C)(C)C)no1 [Example 123] | ≤ 1
Cc1cc(-c2ncnn3cc(C4=CCOCC4)cc23)ccc1CNC(=O)c1coc(C(C)(C)C)n1 [Example 124] | ≤ 1
Cc1cc(-c2ncnn3cc(C4=CCOCC4)cc23)ccc1CNC(=O)c1nnn(C(C)(C)C)n1 [Example 128] | ≤ 1
Cc1cc(-c2ncnn3cc(-c4cnn(C)c4C)cc23)ccc1CNC(=O)c1nnn(C(C)(C)C)n1 [Example 129] | ≤ 1
Cc1cc(-c2ncnn3cc(-c4cnn(C)c4C)cc23)ccc1CNC(=O)c1coc(C(C)(C)C)n1 [Example 130] | ≤ 1
Cc1cc(-c2ncnn3cc(-c4cnn(C)c4C)cc23)ccc1CNC(=O)c1cnc(C(C)(C)C)o1 [Example 131] | 1 to 10
CC(C)(C)c1nc(C(=O)NCc2cc(F)c(-c3ncnn4cccc34)cc2Cl)no1 [Example 132] | 1 to 10
CC(C)(C)c1noc(C(=O)NCc2cc(F)c(-c3ncnn4cccc34)cc2Cl)n1 [Example 133] | 1 to 10
CC(C)(C)c1nc(C(=O)NCc2cc(F)c(-c3ncnn4cccc34)cc2Cl)co1 [Example 134] | > 10
CC(C)(C)c1cc(C(=O)NCc2cc(F)c(-c3ncnn4cccc34)cc2Cl)no1 [Example 135] | > 10
CC(C)(C)n1nnc(C(=O)NCc2cc(F)c(-c3ncnn4cccc34)cc2Cl)n1 [Example 136] | > 10
Cc1cc(-c2ncnn3cc(-c4cnn(CC(F)F)c4)cc23)ccc1CNC(=O)c1cnn(C(C)(C)C)c1 [Example 145] | ≤ 1
Cc1cc(-c2ncnn3cc(-c4cnn(CC(F)F)c4)cc23)ccc1CNC(=O)c1nnn(C(C)(C)C)n1 [Example 146] | ≤ 1
CC=CC(=O)n1cc(-c2cc3c(-c4ccc(CNC(=O)c5noc(C(C)(C)C)n5)c(C)c4)ncnn3c2)cn1 [Example 147] | ≤ 1
Cc1cc(-c2ncnn3cc(N4CC5CC(C4)N5C)cc23)ccc1CNC(=O)c1noc(C(C)(C)C)n1 [Example 148] | 1 to 10
Cc1cc(-c2ncnn3cc(C4CCN(C)C4)cc23)ccc1CNC(=O)c1noc(C(C)(C)C)n1 (centres unmarked) [Example 149] | 1 to 10
Cc1cc(-c2ncnn3cccc23)ccc1CNC(=O)c1noc(C(C)(C)C)n1 [Example 151] | 1 to 10
Cc1cc(-c2ncnn3cccc23)ccc1CNC(=O)c1nc(C(C)(C)C)no1 [Example 152] | 1 to 10
CC(C)(C)c1noc(C(=O)NCc2ccc(-c3ncnn4cccc34)c(F)c2C2CC2)n1 [Example 153] | 1 to 10
CC(C)(C)c1nc(C(=O)NCc2ccc(-c3ncnn4cc(N5CCOCC5)cc34)c(F)c2Cl)no1 [Example 154] | ≤ 1
CC(C)(C)n1cc(C(=O)NCc2ccc(-c3ncnn4cc(N5CCOCC5)cc34)c(F)c2Cl)cn1 [Example 155] | ≤ 1
CC(C)(C)c1nnc(C(=O)NCc2ccc(-c3ncnn4cc(N5CCOCC5)cc34)c(F)c2Cl)o1 [Example 156] | ≤ 1
CC(C)(C)n1cc(C(=O)NCc2ccc(-c3ncnn4cc(N5CCOCC5)cc34)c(F)c2Cl)nn1 [Example 157] | ≤ 1
CC(C)(C)n1ccc(C(=O)NCc2ccc(-c3ncnn4cc(N5CCOCC5)cc34)c(F)c2Cl)n1 [Example 158] | 1 to 10
